Active and inactive are the calls of the source.
Key:
[1] = target: T1, Phosphatidylinositol 5-phosphate 4-kinase type-2 alpha (Homo sapiens, UniProt P48426)
T1 sequence (P48426 whole entry): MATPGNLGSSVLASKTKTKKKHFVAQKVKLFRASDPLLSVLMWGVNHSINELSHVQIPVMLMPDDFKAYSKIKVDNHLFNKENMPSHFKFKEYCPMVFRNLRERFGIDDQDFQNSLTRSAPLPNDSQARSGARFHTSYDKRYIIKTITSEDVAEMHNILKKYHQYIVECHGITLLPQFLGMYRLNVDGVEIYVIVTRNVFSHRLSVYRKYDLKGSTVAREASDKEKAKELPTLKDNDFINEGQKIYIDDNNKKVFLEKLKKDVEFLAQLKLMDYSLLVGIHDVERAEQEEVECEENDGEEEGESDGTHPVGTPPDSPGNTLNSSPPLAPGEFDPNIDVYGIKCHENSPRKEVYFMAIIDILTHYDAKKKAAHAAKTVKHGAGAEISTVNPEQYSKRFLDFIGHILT

[2] = target: cAMP-dependent protein kinase catalytic subunit gamma (Homo sapiens, UniProt P22612)
cAMP-dependent protein kinase catalytic subunit gamma, sequence (P22612 whole entry): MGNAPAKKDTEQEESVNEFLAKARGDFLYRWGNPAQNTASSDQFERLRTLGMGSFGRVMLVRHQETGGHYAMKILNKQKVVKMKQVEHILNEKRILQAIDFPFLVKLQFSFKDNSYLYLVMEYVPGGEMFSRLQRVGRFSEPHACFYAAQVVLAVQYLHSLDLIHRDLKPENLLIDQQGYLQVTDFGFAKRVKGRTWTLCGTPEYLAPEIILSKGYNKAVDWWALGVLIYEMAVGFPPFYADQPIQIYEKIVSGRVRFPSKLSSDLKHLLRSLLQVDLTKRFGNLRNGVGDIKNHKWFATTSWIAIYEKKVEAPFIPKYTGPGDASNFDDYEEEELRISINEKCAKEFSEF

[3] = target: MAP/microtubule affinity-regulating kinase 3 (Homo sapiens, UniProt P27448)
[4] = target: Protein-tyrosine kinase 6 (Homo sapiens, UniProt Q13882)
Protein-tyrosine kinase 6, sequence (Q13882 whole entry): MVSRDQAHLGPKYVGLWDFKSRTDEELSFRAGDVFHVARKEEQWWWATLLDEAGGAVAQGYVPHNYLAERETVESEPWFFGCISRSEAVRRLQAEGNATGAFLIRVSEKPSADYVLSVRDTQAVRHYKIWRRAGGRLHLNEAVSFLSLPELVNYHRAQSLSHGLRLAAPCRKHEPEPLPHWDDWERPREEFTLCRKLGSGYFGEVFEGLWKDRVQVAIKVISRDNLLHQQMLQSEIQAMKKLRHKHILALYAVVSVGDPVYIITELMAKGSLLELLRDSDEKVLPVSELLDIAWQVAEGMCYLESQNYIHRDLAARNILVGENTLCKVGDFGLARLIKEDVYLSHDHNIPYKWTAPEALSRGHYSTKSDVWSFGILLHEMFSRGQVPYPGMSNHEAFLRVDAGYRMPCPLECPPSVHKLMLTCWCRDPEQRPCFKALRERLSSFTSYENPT

[5] = target: Rho-associated protein kinase 2 (Homo sapiens, UniProt O75116)
Rho-associated protein kinase 2, sequence (O75116 whole entry): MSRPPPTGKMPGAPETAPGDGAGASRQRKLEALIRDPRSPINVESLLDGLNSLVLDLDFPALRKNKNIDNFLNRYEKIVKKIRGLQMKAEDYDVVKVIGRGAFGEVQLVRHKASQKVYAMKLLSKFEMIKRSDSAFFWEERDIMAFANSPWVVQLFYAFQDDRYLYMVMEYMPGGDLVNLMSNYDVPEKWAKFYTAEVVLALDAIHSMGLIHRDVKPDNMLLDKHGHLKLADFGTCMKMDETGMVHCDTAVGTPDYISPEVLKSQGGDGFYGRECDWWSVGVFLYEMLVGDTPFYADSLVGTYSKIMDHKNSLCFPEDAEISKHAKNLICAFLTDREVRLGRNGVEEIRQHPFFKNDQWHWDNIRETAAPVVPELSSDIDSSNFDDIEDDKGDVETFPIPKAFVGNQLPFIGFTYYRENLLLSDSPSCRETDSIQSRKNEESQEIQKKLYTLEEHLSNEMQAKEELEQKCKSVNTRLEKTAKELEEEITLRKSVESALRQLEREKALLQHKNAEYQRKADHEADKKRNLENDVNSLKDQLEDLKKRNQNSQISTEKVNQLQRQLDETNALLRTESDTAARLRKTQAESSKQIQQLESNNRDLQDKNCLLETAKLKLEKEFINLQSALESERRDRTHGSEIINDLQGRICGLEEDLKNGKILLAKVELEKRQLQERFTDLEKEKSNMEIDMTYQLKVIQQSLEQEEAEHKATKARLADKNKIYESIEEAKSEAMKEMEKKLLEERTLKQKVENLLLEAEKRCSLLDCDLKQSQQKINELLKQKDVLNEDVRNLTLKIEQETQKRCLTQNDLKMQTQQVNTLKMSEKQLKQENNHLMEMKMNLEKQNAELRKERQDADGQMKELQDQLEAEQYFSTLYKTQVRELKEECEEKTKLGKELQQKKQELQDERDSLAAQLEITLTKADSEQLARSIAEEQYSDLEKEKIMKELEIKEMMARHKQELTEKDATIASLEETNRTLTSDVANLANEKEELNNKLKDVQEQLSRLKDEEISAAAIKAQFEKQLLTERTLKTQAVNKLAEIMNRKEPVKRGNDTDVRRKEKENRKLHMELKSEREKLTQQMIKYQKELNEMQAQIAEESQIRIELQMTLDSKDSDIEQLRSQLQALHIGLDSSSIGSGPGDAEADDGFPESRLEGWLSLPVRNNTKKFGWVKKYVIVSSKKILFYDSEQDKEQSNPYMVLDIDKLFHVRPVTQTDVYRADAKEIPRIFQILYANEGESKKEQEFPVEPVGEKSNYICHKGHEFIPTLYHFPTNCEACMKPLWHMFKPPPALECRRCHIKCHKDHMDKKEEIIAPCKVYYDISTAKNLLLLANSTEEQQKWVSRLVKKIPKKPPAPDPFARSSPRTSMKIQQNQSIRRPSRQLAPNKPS

[6] = target: Putative heat shock protein HSP 90-beta 2 (Homo sapiens, UniProt Q58FF8)
Putative heat shock protein HSP 90-beta 2, sequence (Q58FF8 whole entry): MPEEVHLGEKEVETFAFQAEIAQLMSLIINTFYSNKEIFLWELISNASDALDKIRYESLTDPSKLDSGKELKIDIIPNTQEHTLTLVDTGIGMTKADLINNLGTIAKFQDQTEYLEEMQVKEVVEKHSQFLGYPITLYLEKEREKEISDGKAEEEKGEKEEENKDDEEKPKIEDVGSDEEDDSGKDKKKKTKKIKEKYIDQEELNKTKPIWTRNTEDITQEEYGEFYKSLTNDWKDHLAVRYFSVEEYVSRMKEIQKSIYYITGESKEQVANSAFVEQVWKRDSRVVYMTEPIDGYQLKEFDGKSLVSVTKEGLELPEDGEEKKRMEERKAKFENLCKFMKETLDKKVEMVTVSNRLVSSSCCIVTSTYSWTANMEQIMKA

[7] = target: Mitogen-activated protein kinase 3 (Homo sapiens, UniProt P27361)
Mitogen-activated protein kinase 3, sequence (P27361 whole entry, canonical isoform): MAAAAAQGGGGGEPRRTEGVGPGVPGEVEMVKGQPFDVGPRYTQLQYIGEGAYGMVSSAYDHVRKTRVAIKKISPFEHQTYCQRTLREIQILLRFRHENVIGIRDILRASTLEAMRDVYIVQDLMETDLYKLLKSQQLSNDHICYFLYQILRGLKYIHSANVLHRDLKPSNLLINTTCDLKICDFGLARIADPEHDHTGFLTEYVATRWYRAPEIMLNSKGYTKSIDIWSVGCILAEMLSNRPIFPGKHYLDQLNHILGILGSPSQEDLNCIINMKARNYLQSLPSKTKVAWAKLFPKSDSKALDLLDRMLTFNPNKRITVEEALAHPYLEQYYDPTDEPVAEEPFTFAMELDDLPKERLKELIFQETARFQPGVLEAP

[8] = target: Casein kinase I isoform delta (Homo sapiens, UniProt P48730)
Casein kinase I isoform delta, sequence (P48730 whole entry, canonical isoform): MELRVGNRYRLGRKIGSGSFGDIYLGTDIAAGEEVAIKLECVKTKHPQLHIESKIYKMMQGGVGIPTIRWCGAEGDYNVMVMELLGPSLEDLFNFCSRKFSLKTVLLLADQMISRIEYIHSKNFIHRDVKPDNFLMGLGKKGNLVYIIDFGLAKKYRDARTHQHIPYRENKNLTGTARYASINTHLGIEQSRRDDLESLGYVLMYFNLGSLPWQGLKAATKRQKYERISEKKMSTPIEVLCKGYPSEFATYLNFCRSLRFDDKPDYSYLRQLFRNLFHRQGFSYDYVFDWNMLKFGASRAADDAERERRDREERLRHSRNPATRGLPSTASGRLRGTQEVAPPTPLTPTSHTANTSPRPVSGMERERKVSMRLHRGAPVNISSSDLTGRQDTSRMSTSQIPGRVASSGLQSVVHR

[9] = target: S-adenosylmethionine synthase isoform type-2 (Homo sapiens, UniProt P31153)
S-adenosylmethionine synthase isoform type-2, sequence (P31153 whole entry, canonical isoform): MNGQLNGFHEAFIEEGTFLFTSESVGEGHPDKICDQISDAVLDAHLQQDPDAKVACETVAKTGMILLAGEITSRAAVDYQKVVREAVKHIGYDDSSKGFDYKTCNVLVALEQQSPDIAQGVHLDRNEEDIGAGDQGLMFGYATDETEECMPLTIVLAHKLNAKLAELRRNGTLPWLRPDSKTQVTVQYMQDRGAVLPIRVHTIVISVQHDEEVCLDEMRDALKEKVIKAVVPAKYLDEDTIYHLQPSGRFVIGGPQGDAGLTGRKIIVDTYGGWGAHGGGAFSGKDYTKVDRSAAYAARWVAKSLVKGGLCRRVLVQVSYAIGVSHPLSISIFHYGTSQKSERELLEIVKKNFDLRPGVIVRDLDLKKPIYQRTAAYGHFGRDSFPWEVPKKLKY

[10] = target: T2, Tyrosine--tRNA ligase, cytoplasmic (Homo sapiens, UniProt P54577)
T2 sequence (P54577 whole entry): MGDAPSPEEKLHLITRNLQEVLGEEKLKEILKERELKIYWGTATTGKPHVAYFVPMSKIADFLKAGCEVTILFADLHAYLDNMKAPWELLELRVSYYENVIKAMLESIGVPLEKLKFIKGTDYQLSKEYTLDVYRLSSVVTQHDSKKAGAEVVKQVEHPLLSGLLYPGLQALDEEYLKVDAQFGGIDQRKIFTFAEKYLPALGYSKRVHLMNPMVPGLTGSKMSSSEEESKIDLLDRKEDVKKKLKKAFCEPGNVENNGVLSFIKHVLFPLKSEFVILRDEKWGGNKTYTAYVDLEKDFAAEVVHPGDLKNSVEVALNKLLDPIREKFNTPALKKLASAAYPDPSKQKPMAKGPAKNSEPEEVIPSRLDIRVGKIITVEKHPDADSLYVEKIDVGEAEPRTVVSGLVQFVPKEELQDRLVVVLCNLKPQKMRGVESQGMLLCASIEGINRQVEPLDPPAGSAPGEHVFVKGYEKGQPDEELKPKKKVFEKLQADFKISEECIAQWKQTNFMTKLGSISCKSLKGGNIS

[11] = target: T3, Long-chain-fatty-acid--CoA ligase 5 (Homo sapiens, UniProt Q9ULC5)
T3 sequence (Q9ULC5 whole entry): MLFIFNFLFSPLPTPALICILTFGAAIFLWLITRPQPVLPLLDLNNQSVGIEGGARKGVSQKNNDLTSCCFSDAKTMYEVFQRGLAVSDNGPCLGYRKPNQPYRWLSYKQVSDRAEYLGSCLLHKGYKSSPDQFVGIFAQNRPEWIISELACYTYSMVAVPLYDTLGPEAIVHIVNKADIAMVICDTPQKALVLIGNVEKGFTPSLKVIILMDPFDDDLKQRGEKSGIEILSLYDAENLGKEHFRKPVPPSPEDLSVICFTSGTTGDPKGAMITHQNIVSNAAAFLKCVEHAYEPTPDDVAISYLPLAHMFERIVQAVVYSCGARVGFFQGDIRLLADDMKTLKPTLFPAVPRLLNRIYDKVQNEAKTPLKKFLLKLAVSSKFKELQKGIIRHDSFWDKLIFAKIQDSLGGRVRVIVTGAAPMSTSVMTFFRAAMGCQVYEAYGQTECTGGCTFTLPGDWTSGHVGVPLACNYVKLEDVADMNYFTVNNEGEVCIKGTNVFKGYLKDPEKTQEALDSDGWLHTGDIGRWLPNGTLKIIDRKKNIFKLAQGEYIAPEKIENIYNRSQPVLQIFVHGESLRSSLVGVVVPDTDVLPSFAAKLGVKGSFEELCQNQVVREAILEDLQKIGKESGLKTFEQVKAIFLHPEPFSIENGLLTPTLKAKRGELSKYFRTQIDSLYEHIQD

[12] = target: Casein kinase I isoform gamma-1 (Homo sapiens, UniProt Q9HCP0)
Casein kinase I isoform gamma-1, sequence (Q9HCP0 whole entry, canonical isoform): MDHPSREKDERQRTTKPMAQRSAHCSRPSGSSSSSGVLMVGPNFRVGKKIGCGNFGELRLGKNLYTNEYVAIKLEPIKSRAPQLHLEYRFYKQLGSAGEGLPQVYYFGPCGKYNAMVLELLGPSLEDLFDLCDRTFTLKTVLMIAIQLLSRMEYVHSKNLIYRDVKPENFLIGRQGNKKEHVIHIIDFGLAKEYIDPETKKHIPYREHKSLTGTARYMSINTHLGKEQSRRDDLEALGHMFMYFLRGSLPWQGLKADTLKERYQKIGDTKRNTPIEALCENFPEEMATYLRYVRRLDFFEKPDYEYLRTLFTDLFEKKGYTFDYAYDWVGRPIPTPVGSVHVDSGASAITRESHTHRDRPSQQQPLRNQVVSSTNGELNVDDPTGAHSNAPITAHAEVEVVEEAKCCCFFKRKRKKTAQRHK

[13] = target: RAC-alpha serine/threonine-protein kinase (Homo sapiens, UniProt P31749)
RAC-alpha serine/threonine-protein kinase, sequence (P31749 whole entry): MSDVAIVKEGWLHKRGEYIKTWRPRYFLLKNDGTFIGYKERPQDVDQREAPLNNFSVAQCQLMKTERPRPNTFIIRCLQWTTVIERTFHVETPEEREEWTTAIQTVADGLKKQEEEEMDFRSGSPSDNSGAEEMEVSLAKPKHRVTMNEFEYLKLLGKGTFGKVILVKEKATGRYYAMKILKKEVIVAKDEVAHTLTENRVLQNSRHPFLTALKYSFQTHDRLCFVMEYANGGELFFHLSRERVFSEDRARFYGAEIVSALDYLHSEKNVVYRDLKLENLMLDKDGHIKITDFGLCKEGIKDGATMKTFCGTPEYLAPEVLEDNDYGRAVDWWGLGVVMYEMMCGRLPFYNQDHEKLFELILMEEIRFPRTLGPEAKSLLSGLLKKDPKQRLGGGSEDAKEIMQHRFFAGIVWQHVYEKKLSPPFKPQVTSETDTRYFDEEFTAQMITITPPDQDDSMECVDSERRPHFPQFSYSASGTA

[14] = target: T4, Cytochrome c1, heme protein, mitochondrial (Homo sapiens, UniProt P08574)
T4 sequence (P08574 whole entry): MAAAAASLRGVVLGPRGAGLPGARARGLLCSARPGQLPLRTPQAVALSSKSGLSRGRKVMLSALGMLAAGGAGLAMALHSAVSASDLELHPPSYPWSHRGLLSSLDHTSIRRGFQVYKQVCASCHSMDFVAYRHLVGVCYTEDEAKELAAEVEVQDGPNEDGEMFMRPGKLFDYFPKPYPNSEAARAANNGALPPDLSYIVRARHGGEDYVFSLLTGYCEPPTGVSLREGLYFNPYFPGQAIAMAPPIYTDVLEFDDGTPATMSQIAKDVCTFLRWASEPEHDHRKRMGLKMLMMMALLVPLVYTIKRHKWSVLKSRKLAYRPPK
Further: in the data inactive means no Kd found up to 30 µM.

Compound	Kd [1]	Kd [2]	Kd [3]	Kd [4]	Kd [5]	Kd [6]	Kd [7]	Kd [8]	Kd [9]	Kd [10]	Kd [11]	Kd [12]	Kd [13]	Kd [14]
Cn1cc(-c2[nH]c3cc(NC(=O)[C@H](N)C4CCCCC4)cc4c3c2C=NNC4=O)cn1	> 30 µM (inactive)	> 30 µM (inactive)	0.387 µM (active)	> 30 µM (inactive)	> 30 µM (inactive)	> 30 µM (inactive)	3.21 µM (active)	> 30 µM (inactive)	> 30 µM (inactive)	> 30 µM (inactive)	> 30 µM (inactive)	> 30 µM (inactive)	> 30 µM (inactive)	> 30 µM (inactive)
COc1cc2ncnc(Nc3ccc(O)cc3)c2cc1OC [WHI-P131]	> 30 µM (inactive)	> 30 µM (inactive)	> 30 µM (inactive)	> 30 µM (inactive)	> 30 µM (inactive)	> 30 µM (inactive)	> 30 µM (inactive)	> 30 µM (inactive)	> 30 µM (inactive)	> 30 µM (inactive)	> 30 µM (inactive)	> 30 µM (inactive)	> 30 µM (inactive)	> 30 µM (inactive)
COc1cc(F)c(F)c(Nc2ccc(I)cc2F)c1NS(=O)(=O)C1(C[C@H](O)CO)CC1 [REFAMETINIB]	> 30 µM (inactive)	> 30 µM (inactive)	> 30 µM (inactive)	> 30 µM (inactive)	> 30 µM (inactive)	> 30 µM (inactive)	> 30 µM (inactive)	> 30 µM (inactive)	> 30 µM (inactive)	> 30 µM (inactive)	> 30 µM (inactive)	> 30 µM (inactive)	> 30 µM (inactive)	> 30 µM (inactive)
COc1cccc(Nc2ncnn3ccc(CN4CC[C@@H](N)[C@H](O)C4)c23)c1 [BMS-690514]	> 30 µM (inactive)	> 30 µM (inactive)	1.7 µM (active)	> 30 µM (inactive)	> 30 µM (inactive)	> 30 µM (inactive)	> 30 µM (inactive)	> 30 µM (inactive)	> 30 µM (inactive)	> 30 µM (inactive)	> 30 µM (inactive)	> 30 µM (inactive)	> 30 µM (inactive)	> 30 µM (inactive)
CC1(COc2ccc3c(c2)ncn3-c2ccc3cccc(N4CCC(N)CC4)c3n2)COC1 [CRENOLANIB]	> 30 µM (inactive)	> 30 µM (inactive)	0.22 µM (active)	> 30 µM (inactive)	> 30 µM (inactive)	2.57 µM (active)	> 30 µM (inactive)	> 30 µM (inactive)	> 30 µM (inactive)	3.32 µM	> 30 µM (inactive)	> 30 µM (inactive)	> 30 µM (inactive)	> 30 µM (inactive)
O[C@H]1CC[C@H](Nc2ncc3nc(Nc4c(F)cc(F)cc4F)n([C@H]4CCOC4)c3n2)CC1 [TANZISERTIB]	> 30 µM (inactive)	> 30 µM (inactive)	> 30 µM (inactive)	> 30 µM (inactive)	> 30 µM (inactive)	> 30 µM (inactive)	3.69 µM (active)	> 30 µM (inactive)	> 30 µM (inactive)	> 30 µM (inactive)	> 30 µM (inactive)	> 30 µM (inactive)	> 30 µM (inactive)	> 30 µM (inactive)
CNC(=O)c1ccc(Nc2ncc(C(F)(F)F)c(NCc3nccnc3N(C)S(C)(=O)=O)n2)cc1 [DEFACTINIB]	> 30 µM (inactive)	> 30 µM (inactive)	4.49 µM (active)	> 30 µM (inactive)	> 30 µM (inactive)	> 30 µM (inactive)	> 30 µM (inactive)	> 30 µM (inactive)	> 30 µM (inactive)	> 30 µM (inactive)	> 30 µM (inactive)	> 30 µM (inactive)	> 30 µM (inactive)	> 30 µM (inactive)
CCc1nc(C(N)=O)c(Nc2ccc(N3CCC(N4CCN(C)CC4)CC3)c(OC)c2)nc1NC1CCOCC1 [GILTERITINIB]	> 30 µM (inactive)	> 30 µM (inactive)	> 30 µM (inactive)	> 30 µM (inactive)	> 30 µM (inactive)	> 30 µM (inactive)	> 30 µM (inactive)	> 30 µM (inactive)	> 30 µM (inactive)	> 30 µM (inactive)	0.208 µM	> 30 µM (inactive)	> 30 µM (inactive)	0.202 µM
Cc1cc(-c2cc(OC(=O)c3ccccc3)ccc2Cl)cc2nnc(Nc3ccc(OCCN4CCCC4)cc3)nc12 [TG100-801]	> 30 µM (inactive)	> 30 µM (inactive)	> 30 µM (inactive)	> 30 µM (inactive)	> 30 µM (inactive)	> 30 µM (inactive)	> 30 µM (inactive)	> 30 µM (inactive)	> 30 µM (inactive)	> 30 µM (inactive)	> 30 µM (inactive)	> 30 µM (inactive)	> 30 µM (inactive)	> 30 µM (inactive)
COc1cccc2cc(-c3nc([C@H]4CC[C@H](C(=O)O)CC4)n4ncnc(N)c34)[nH]c12 [OSI-027]	> 30 µM (inactive)	> 30 µM (inactive)	> 30 µM (inactive)	> 30 µM (inactive)	> 30 µM (inactive)	> 30 µM (inactive)	> 30 µM (inactive)	> 30 µM (inactive)	> 30 µM (inactive)	> 30 µM (inactive)	> 30 µM (inactive)	> 30 µM (inactive)	> 30 µM (inactive)	> 30 µM (inactive)
COCCN1CCN(Cc2ccc(-c3n[nH]c4c3C(=O)c3c(NC(=O)NN5CCOCC5)cccc3-4)cc2)CC1 [RGB-286638]	> 30 µM (inactive)	> 30 µM (inactive)	> 30 µM (inactive)	> 30 µM (inactive)	> 30 µM (inactive)	> 30 µM (inactive)	> 30 µM (inactive)	1.22 µM (active)	> 30 µM (inactive)	> 30 µM (inactive)	> 30 µM (inactive)	3.18 µM (active)	> 30 µM (inactive)	> 30 µM (inactive)
CC[C@@](C)(Nc1ccnc(-c2c[nH]c3ncccc23)n1)C(=O)NCC(F)(F)F [DECERNOTINIB]	> 30 µM (inactive)	> 30 µM (inactive)	0.562 µM (active)	> 30 µM (inactive)	56.1 µM (active)	> 30 µM (inactive)	> 30 µM (inactive)	> 30 µM (inactive)	> 30 µM (inactive)	> 30 µM (inactive)	> 30 µM (inactive)	> 30 µM (inactive)	> 30 µM (inactive)	> 30 µM (inactive)

— ChEMBL document CHEMBL3991601, “The target landscape of clinical kinase drugs” (Science, 2017)
